We go through 1 compound from publication PMC3653412 (European journal of pharmacology, 2012).

The target in this assay is complex I (NADH:ubiquinone oxidoreductase) (Rattus norvegicus, UniProt A6K8N6+P03889+Q641Y2). The assay is described as follows: oxygen consumption of isolated mitochondria, Clark electrode. In kind it is biochemical. The note with it: read-out: % inhibition at 0.5 mM.

Each structure is given as a SMILES string.

For `FC(F)OC(Cl)C(F)(F)F` (stereo not shown) [isoflurane], the inhibition at 500 µM came out at 28 ± 10%.
